Laboratory results as given in ChEMBL document CHEMBL3351289, “4-Substituted quinazoline derivatives as novel EphA2 receptor tyrosine kinase inhibitors” (Bioorg Med Chem Lett, 2014).

Columns and labels:
Ephrin type-A receptor 2 [1] = target: T1, Ephrin type-A receptor 2 (Homo sapiens, UniProt P29317); assay: Inhibition of EphA2 (unknown origin) at 10 uM pre-incubated with enzyme for 10 mins before adding peptide substrate and ATP using TK-substrate-biotin and SEB by time-resolved fluorescence resonance energy transfer assay
T1 sequence (P29317 whole entry): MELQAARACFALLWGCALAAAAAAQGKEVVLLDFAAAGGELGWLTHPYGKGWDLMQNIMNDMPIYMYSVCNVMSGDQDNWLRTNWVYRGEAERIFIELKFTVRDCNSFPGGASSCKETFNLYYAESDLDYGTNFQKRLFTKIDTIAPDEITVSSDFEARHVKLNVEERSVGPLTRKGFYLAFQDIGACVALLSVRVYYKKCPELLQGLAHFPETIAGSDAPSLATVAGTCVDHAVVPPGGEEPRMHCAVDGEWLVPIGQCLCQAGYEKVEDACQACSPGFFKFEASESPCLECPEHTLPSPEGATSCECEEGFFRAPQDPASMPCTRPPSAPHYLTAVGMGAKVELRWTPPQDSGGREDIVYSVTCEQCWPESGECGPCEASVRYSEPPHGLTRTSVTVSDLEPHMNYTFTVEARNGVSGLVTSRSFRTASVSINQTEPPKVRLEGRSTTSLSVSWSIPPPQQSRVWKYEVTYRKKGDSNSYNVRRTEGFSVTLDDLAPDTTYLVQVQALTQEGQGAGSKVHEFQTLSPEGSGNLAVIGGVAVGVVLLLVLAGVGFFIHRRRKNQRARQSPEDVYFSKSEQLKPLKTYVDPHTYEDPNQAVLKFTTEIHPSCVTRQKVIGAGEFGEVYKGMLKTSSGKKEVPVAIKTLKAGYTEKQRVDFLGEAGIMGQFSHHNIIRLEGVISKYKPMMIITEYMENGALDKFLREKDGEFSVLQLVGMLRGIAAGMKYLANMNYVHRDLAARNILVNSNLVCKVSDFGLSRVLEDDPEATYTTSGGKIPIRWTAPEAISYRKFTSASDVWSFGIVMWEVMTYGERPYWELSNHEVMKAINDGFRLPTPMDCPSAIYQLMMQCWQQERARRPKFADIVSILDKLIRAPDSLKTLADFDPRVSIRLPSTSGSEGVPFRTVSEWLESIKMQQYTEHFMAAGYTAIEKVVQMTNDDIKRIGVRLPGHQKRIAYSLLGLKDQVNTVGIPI

Ephrin type-A receptor 2 [2] = target: T1, Ephrin type-A receptor 2; assay: Inhibition of EphA2 (unknown origin) pre-incubated with enzyme for 10 mins before adding peptide substrate and ATP using TK-substrate-biotin and SEB by time-resolved fluorescence resonance energy transfer assay
Ephrin type-A receptor 2 [3] = target: T1, Ephrin type-A receptor 2; assay: Inhibition of EphA2 (unknown origin) expressed in […] cells assessed as reduction in wound closure after 72 hrs by phase contrast microscopy based would healing assay; type: cell-based
[4] = target: Mitogen-activated protein kinase 11 (Homo sapiens) (UniProt Q15759); assay: Inhibition of p38beta (unknown origin) at 1 uM
Sequence of Mitogen-activated protein kinase 11 (Homo sapiens) (Q15759 whole entry): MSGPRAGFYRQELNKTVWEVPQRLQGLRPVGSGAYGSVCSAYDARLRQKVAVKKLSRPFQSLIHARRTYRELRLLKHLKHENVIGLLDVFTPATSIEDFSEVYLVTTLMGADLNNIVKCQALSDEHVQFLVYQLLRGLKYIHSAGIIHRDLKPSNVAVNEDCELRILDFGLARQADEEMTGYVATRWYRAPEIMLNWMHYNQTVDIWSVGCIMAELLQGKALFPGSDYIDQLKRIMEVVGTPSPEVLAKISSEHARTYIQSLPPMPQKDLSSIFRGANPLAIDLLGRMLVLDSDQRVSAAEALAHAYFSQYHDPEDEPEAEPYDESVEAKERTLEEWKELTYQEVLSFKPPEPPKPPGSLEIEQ

[5] = target: Platelet-derived growth factor receptor alpha (Homo sapiens) (UniProt P16234); assay: Inhibition of PDGFRalpha (unknown origin) at 1 uM
[6] = target: Mitogen-activated protein kinase 10 (Homo sapiens) (UniProt P53779); assay: Inhibition of JNK3 (unknown origin) at 1 uM
Sequence of Mitogen-activated protein kinase 10 (Homo sapiens) (P53779 whole entry): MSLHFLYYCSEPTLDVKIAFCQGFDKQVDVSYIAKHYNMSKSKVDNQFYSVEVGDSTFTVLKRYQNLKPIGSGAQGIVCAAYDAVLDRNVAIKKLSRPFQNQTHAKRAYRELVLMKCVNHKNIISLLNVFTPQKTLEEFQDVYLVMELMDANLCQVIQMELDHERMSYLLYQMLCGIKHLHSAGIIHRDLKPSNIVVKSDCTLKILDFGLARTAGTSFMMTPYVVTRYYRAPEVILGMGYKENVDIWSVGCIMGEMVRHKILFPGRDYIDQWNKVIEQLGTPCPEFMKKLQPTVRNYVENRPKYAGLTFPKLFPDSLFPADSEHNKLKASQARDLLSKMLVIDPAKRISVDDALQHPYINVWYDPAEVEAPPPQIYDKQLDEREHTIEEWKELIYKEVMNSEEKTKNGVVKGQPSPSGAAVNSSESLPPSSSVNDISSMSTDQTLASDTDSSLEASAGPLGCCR

[7] = target: Vascular endothelial growth factor receptor 2 (Homo sapiens) (UniProt P35968); assay: Inhibition of KDR (unknown origin) at 1 uM
[8] = target: Glycogen synthase kinase-3 beta (Homo sapiens) (UniProt P49841); assay: Inhibition of GSK3beta (unknown origin) at 1 uM
Sequence of Glycogen synthase kinase-3 beta (Homo sapiens) (P49841 whole entry, looked up): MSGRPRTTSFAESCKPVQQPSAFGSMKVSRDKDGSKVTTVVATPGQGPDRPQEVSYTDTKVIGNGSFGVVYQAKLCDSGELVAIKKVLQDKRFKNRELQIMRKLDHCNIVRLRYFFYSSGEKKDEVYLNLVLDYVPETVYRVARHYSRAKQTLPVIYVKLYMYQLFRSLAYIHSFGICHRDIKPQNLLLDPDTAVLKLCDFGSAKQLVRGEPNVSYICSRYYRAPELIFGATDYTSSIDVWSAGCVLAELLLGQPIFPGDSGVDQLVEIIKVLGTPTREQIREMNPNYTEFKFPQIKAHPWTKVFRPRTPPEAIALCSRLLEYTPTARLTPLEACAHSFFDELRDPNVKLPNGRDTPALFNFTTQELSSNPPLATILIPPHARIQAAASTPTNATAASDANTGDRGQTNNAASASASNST

[9] = target: Epidermal growth factor receptor (Homo sapiens) (UniProt P00533); assay: Inhibition of EGFR (unknown origin) at 1 uM
[10] = target: Mitogen-activated protein kinase 1 (Homo sapiens) (UniProt P28482); assay: Inhibition of ERK2 (unknown origin) at 1 uM
[11] = target: Mitogen-activated protein kinase 14 (Homo sapiens) (UniProt Q16539); assay: Inhibition of p38alpha (unknown origin) at 1 uM
[12] = target: Insulin receptor (Homo sapiens) (UniProt P06213); assay: Inhibition of InsR (unknown origin) at 1 uM
Sequence of Insulin receptor (Homo sapiens) (P06213 28-758 limits assumed): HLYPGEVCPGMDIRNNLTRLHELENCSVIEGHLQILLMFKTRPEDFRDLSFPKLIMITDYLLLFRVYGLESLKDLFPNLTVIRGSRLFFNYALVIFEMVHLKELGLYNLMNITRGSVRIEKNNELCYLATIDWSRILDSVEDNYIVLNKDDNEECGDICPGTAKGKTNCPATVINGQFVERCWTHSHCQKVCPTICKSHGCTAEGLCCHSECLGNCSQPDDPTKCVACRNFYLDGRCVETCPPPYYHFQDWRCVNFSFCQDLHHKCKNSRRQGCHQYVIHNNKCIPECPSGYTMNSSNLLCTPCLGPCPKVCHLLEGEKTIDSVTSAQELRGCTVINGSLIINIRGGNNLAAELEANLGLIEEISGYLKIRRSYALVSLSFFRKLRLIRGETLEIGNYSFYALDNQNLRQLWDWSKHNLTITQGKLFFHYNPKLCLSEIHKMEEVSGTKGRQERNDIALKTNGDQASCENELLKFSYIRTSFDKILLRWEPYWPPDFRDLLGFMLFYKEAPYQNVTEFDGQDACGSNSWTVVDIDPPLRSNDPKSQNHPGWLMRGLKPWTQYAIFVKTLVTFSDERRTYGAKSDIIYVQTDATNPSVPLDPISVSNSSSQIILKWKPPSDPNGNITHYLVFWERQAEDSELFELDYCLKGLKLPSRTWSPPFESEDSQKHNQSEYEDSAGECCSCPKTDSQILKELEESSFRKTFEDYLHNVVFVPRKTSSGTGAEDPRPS
Sequence of Insulin receptor (Homo sapiens) (P06213 763-1382 limits assumed): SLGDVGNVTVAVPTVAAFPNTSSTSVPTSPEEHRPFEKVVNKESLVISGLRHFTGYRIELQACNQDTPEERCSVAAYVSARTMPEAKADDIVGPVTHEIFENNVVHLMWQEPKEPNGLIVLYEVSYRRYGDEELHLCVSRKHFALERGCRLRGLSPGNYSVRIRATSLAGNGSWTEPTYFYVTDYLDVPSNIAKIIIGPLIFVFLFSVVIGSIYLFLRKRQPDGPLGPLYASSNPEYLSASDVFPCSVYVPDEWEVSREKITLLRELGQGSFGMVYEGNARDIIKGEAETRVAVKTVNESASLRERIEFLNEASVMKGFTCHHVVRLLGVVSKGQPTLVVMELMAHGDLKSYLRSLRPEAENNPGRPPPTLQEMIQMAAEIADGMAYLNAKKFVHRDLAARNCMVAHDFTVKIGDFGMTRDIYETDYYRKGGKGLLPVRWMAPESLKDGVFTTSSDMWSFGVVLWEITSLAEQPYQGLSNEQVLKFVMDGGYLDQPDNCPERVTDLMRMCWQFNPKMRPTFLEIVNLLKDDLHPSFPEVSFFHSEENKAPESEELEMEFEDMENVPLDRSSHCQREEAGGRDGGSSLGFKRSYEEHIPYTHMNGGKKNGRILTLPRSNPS

[13] = target: Receptor tyrosine-protein kinase erbB-2 (Homo sapiens) (UniProt P04626); assay: Inhibition of HER2 (unknown origin) at 1 uM
Sequence of Receptor tyrosine-protein kinase erbB-2 (Homo sapiens) (P04626 whole entry): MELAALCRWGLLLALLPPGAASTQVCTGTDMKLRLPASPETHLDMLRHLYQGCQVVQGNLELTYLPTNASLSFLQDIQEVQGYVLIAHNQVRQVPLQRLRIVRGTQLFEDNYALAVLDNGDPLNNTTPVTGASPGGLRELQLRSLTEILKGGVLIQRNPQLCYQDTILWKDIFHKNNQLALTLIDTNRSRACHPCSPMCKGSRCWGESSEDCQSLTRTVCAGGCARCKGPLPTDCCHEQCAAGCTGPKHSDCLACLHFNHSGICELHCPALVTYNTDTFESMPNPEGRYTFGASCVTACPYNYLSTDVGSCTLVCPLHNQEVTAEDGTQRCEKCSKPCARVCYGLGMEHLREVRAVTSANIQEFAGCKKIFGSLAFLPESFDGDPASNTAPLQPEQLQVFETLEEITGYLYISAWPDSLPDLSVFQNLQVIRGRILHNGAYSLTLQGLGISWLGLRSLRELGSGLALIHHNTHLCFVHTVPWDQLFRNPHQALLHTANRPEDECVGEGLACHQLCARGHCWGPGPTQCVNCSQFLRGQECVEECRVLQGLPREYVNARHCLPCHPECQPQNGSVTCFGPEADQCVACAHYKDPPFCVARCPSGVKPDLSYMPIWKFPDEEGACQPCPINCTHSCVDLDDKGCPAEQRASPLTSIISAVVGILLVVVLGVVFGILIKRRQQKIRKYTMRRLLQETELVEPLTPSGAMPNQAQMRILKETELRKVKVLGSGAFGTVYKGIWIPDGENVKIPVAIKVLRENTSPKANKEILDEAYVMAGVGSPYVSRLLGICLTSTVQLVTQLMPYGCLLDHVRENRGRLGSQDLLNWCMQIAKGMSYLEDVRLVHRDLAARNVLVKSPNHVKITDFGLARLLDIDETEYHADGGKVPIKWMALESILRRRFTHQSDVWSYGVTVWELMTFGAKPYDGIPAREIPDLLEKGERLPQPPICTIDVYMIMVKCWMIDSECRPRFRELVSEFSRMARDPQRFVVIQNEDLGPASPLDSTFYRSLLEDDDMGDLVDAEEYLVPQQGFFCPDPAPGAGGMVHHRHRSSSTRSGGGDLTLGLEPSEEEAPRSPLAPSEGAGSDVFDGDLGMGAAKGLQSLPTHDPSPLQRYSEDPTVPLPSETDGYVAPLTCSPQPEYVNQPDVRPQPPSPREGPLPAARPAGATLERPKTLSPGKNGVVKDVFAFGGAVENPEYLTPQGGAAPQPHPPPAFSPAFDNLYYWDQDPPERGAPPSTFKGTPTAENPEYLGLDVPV

[14] = target: Mitogen-activated protein kinase 8 (Homo sapiens) (UniProt P45983); assay: Inhibition of JNK1 (unknown origin) at 1 uM
[15] = target: Insulin-like growth factor 1 receptor (Homo sapiens) (UniProt P08069); assay: Inhibition of IGF1R (unknown origin) at 1 uM

SMILES	inhibition (Ephrin type-A receptor 2 [1]) [%]	IC50 (Ephrin type-A receptor 2 [2]) [nM]	inhibition (Ephrin type-A receptor 2 [3])	inhibition [4] [%]	inhibition [5] [%]	inhibition [6] [%]	inhibition [7] [%]	inhibition [8] [%]	inhibition [9] [%]	inhibition [10] [%]	inhibition [11] [%]	inhibition [12] [%]	inhibition [13] [%]	inhibition [14] [%]	inhibition [15] [%]
CCCc1ccc(Nc2ncnc3cc(OCC4CNCCO4)c(OC)cc23)cc1 (stereo not given)	49														
COc1cc2c(Nc3ccc(Cl)cc3F)ncnc2cc1OCC1CNCCO1 (stereo not given)		160	Dose-dependent effect	2	17	0	76	11	100	0	16	15	22	0	7
